Results published in patent US20110087015A1, “Nucleoside and nucleotide having an unnatural base and use thereof” (priority 2003, published 2011).
“Also recorded” adds a separate entry of the source. Where two headings read alike, the source gives them in different places.

Legend:
[1] = target: T1, Klenow fragment (KF exo−), DNA polymerase I lacking 3′→5′ exonuclease activity (Escherichia coli, UniProt P00582, D355A/E357A); assay: Klenow fragment-mediated single nucleotide insertion experiment (replication); type: biochemical, E. coli
T1 construct: Large fragment of DNA polymerase Exonuclease-free Klenow enzyme (Cloned) (Amersham USB); purchased Amersham USB
Text: In this example, E. coli-derived DNA polymerase I lacking 3′→5′ exonuclease activity, i.e., Klenow fragment (KF exo^−) was used to make a comparison of the efficiency for single nucleotide incorporation during replication (i.e., incorporation of 2-oxo-(1H)pyridine (y) into DNA) between v-y base pair (the present invention) and s-y base pair (control).
More specifically, Large fragment of DNA polymerase Exonuclease-free Klenow enzyme (Cloned) (Amersham USB) and 10× reaction buffer attached thereto (500 mM Tris-HCl pH 7.5, 100 mM MgCl2, 10 mM DTT, 0.5 mg/ml BSA) were used. The enzyme concentration of KF exo^− was determined using a Bio-Rad Protein Assay kit (BioRad) for each lot purchased.
The primer for use in the reaction was pre-labeled at its 5′-end using T4 polynucleotide kinase (TaKaRa) and […], and then purified by gel electrophoresis.
Reaction conditions: a mixed solution of template DNA (20 μM, 1 μl), the primer whose 5′-end was labeled with ^32P (5 μM, 4 μl) and 10× reaction buffer (1 μl) was heated at 95° C. for 3 minutes and then annealed by quenching to form a duplex between the template DNA and the primer. A Klenow fragment solution (1 μM) diluted with enzyme dilution buffer (50 mM phosphate buffer pH 7, 50% glycerol, 1 mM DTT) was added in a volume of 2 μl and incubated at 37° C. for 2 minutes, followed by addition of 2 μl dNTP solution (any one of A, G, C, T or y shown in FIG. 8) (100 μM) to start the reaction. After incubation at 37° C. for 2 minutes, 10 μl of a 10 M urea-containing TBE solution was added and heated at 75° C. for 3 minutes to stop the reaction. The reaction conditions are summarized as follows: template/primer 2 μM; KF exo^− 200 nM; dNTP 20 μM; reaction at 37° C. for 2 minutes.
Aliquot parts of the reaction solutions were electrophoresed on a 20% polyacrylamide-7 M urea gel and the reaction products were analyzed with a bioimaging analyzer (BAS2500, Fuji Photo Film Co., Ltd., Japan).

T7 RNA polymerase = target: T2, T7 RNA polymerase (Escherichia phage T7, UniProt P00573); assay: Site-selective introduction of ryTP into RNA through transcription; type: biochemical; settings: for incorporation efficiency of the substrate y into RNA (transcription efficiency): one unnatural base in template (vT or sT), compared to natural base pairing (AT); for transcription efficiency, two y substrates incorporated into RNA: two adjacent unnatural bases in template (NN=vv or NN=ss)
T2 construct: purchased TAKARA SHUZO CO., LTD (TaKaRa)
Experimental: This example was intended to study site-selective introduction of ryTP into RNA through transcription reaction. […] The DNA primer required for the transcription reaction had the following sequence.
A template and T7prim21 were mixed in 10 mM Tris-HCl (pH 7.6) containing 10 mM NaCl and annealed into a double-stranded form for use in the transcription reaction (FIG. 14). The T7 transcription reaction was performed on 20 μl scale using an enzyme from TAKARA SHUZO CO., LTD [T. Ohtsuki et al., Proc. Natl. Acad. Sci. USA, 98, 4922-4925 (2001)]. More specifically, the transcription reaction was accomplished by incubation at 37° C. for 3 hours in a reaction solution containing 40 mM Tris-HCl pH 8.0, 5 mM DTT, 24 mM MgCl2, 2 mM spermidine, 0.01% TritonX-100, 10 mM GMP, 1 mM NTPs (N=G, C, U, with or without ryTP, as shown in FIGS. 15 and 16), 2 μCi [α-^32P]ATP, 2 μM double-stranded DNA (template and T7prim21), and 2.5 U/μl T7 RNA polymerase (TaKaRa). If the transcription reaction proceeds completely, an RNA product having the following full-length sequence can be obtained.
The reaction solutions were each supplemented with an equal volume of a 10 M urea-containing BPBdye solution and heated at 75° C. for 3 minutes to stop the reaction, followed by electrophoresis on a 20% polyacrylamide-7 M urea gel to confirm products of the transcription reaction. The [α-^32P]ATP-labeled reaction products were analyzed with a bioimaging analyzer (BAS2500, Fuji Photo Film Co., Ltd., Japan). The incorporation efficiency of the substrate y into RNA when using the sT-containing template in transcription with T7 RNA polymerase (FIG. 14) was about 50% to 60%, as compared to natural base pairing (AT). In contrast, when using the vT-containing template, the incorporation efficiency of the substrate y was 96%, which was as high as that of natural base pairing (FIG. 15).

[2] = target: T3, Klenow fragment (Large Fragment E. coli DNA Polymerase I) (Escherichia coli, UniProt P00582); assay: Klenow fragment-mediated elongation reaction (replication); type: biochemical; settings: substrates A; for replication with two adjacent unnatural bases in template (35-mer product): G, y, NN=vv or NN=ss
T3 construct: purchased TaKaRa
Text: This example was intended to study selective introduction of y at a site corresponding to v in the complementary DNA strand during Klenow fragment-mediated elongation reaction, rather than single-base incorporation. The reaction primer DNA and template DNA used are shown below.
As in the case of Example 2, the primer was pre-labeled at its 5′-end using […] and then purified by gel electrophoresis. In Experiments 2 and 3, the base y is incorporated as the first base of elongation from the primer. In contrast, in this experiment, v in the template is located at a position corresponding to the severalth base elongated from the primer, and it is therefore possible to study the introduction of y at a site corresponding to v in the complementary DNA strand during elongation reaction.
The template DNA (400 nM) and the primer whose 5′-end was labeled with ^32P (FIG. 11) (400 nM), each of which had been dissolved in 2× reaction buffer (20 mM Tris-HCl pH 7.5, 14 mM MgCl2, 0.2 mM DTT), were heated at 95° C. for 3 minutes and then annealed by quenching to form a duplex. After this duplex DNA solution was dispensed in 5 μl aliquots, 2 μl of a dNTP solution (a combination shown in each lane of FIG. 12 or 13) (50 μM) and 3 μl (0.15 units) of Klenow fragment (KF exo^+; Cloned Klenow Fragment for sequencing (Large Fragment E. coli DNA Polymerase I), purchased from TaKaRa) diluted with water were added to start the enzymatic reaction at 37° C. After incubation for 3 minutes, the enzymatic reaction was stopped by adding 10 μl of a 10 M urea-containing TBE solution and heating at 75° C. for 3 minutes. The reaction conditions are summarized as follows: template/primer 200 nM; KF […] 0.015U/μl; dNTPs 10 μM; reaction at 37° C. for 3 minutes.
Aliquot parts of the reaction solutions were electrophoresed on a 15% polyacrylamide-7 M urea gel and the reaction products were analyzed with a bioimaging analyzer (BAS2500, Fuji Photo Film Co., Ltd., Japan). […]

[3] = target: T4, Klenow fragment (KF exo−) (Escherichia coli, UniProt P00582, D355A/E357A); type: biochemical, E. coli; settings: for efficiency (Vmax/Km) / Vmax / Km: template base N = label; for Vmax: normalized to enzyme concentration 20 nM
T4 construct: Large fragment of DNA polymerase Exonuclease-free Klenow enzyme (Cloned) (Amersham USB); purchased Amersham USB
Text: This example was intended to analyze reaction rate constants in the same Klenow fragment-mediated single nucleotide insertion reaction as shown in Example 2.
More specifically, the reaction primer used was a primer whose 5′-end was fluorescently labeled with 6-FAM (SEQ ID NO: 1, FIG. 10). The primer whose 5′-end was fluorescently labeled was purchased from Applied Biosystems among those commercially available as custom fluorescent primers for GeneScan, and purified by gel electrophoresis. The analysis of reaction products was performed with a DNA sequencer (Applied Biosystems; model ABI377).
Reaction conditions: Template DNA (SEQ ID NO: 2 or 3) (10 μM) and the fluorescently-labeled primer (10 μM), each of which had been dissolved in 2× reaction buffer (100 mM Tris-HCl pH 7.5, 20 mM MgCl2, 2 mM DTT, 100 μg/ml BSA), were heated at 95° C. for 3 minutes and then annealed by quenching to form a duplex between the template and the primer. After this duplex DNA solution was dispensed in 5 μl aliquots, a KF exo^− solution (15-250 nM) diluted with enzyme dilution buffer was added in a volume of 2 μl, followed by incubation at 37° C. for 2 minutes to form a DNA-enzyme complex. The resulting solution was supplemented with 3 μl dNTP solution (any one of A, G, C, T or y) (100 μM-7 mM) and enzymatically reacted at 37° C. (1.5-20 minutes). The reaction was stopped by adding 10 μl of a 95% formamide solution containing 20 mM EDTA (stop solution) and heating at 75° C. for 3 minutes.
The reaction conditions are summarized as follows: 5 μM template-primer duplex, 3-50 nM enzyme and 30-2100 μM dNTP are used in a solution (10 μl). The solution (10 μl) contains 50 mM Tris-HCl (pH 7.5), 10 mM MgCl2, 1 mM DTT and 0.05 mg/ml BSA. The reaction is performed at 37° C. for 1.5-20 minutes.
After aliquot parts of the reaction solutions were diluted 50-fold with the stop solution, the thus diluted reaction solutions (0.5 μl) were each mixed with 3 μl loading solution (deionized formamide:50 mg/mL blue dextran solution containing 25 mM EDTA=5:1), heated at 90° C. for 2 minutes and then quenched on ice. Aliquots (about 0.5 μl) of the resulting solutions were loaded on every other lane of a sequence gel and electrophoresed. The sequence gel (36 cm WTR) has the following composition: 6 M urea, 8% polyacrylamide (acrylamide:bisacrylamide=19:1), and 0.5×TBE. The electrophoresis buffer used was 0.5×TBE. The run module used was GS Run 36C-2400. The electrophoresis time was set to about 1 hour, and peak patterns of the reaction products were analyzed and quantified using GeneScan Software (Version 3.0).
Using the peak heights of the unreacted primer fragment and single nucleotide-inserted DNA fragments, the percentage of each primer elongated by a single nucleotide was determined to calculate enzymological parameters Km and Vmax from Hanes-Woolf plots (Goodman, M. F., Creighton, S., Bloom, L. B., Petruska, J. Crit. Rev. Biochem. Mol. Biol., 28, 83-126 (1993)).

[4] = template/primer 2 μM, KF exo− 200 nM, dNTP 20 μM, 37° C., 2 minutes

T1 sequence (P00582 324-928 D355A/E357A): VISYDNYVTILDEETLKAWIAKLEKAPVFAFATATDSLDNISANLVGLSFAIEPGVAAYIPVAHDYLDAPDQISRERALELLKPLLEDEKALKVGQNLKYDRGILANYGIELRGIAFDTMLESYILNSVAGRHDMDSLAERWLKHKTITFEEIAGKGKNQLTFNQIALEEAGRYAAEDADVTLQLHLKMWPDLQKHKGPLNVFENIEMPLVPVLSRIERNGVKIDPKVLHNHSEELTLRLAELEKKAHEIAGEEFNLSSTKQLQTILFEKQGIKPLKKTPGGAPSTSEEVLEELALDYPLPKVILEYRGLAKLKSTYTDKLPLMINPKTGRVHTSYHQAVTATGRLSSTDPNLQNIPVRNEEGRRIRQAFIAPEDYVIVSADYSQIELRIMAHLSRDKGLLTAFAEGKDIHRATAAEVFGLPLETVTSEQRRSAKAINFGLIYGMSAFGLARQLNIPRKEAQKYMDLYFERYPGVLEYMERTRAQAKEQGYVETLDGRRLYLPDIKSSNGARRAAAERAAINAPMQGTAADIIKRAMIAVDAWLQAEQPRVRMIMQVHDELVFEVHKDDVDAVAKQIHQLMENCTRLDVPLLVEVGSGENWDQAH
T4 sequence (P00582 324-928 D355A/E357A): as above
T3 sequence (P00582 324-928): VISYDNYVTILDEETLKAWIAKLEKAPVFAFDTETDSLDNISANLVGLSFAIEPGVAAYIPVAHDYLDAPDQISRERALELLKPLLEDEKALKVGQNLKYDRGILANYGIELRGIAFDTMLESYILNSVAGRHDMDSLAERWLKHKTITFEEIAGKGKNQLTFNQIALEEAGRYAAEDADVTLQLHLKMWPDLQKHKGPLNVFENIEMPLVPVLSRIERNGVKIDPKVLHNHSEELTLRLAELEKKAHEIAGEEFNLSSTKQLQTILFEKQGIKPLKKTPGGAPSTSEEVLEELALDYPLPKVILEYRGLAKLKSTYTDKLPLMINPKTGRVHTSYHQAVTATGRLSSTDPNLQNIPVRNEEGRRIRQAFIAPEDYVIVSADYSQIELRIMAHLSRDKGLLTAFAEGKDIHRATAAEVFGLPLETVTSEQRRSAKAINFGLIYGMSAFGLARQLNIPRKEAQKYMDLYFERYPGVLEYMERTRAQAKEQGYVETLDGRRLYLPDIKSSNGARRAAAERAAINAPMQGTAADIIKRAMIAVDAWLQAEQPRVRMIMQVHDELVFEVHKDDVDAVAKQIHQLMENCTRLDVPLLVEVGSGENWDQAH
T2 sequence (P00573 whole entry): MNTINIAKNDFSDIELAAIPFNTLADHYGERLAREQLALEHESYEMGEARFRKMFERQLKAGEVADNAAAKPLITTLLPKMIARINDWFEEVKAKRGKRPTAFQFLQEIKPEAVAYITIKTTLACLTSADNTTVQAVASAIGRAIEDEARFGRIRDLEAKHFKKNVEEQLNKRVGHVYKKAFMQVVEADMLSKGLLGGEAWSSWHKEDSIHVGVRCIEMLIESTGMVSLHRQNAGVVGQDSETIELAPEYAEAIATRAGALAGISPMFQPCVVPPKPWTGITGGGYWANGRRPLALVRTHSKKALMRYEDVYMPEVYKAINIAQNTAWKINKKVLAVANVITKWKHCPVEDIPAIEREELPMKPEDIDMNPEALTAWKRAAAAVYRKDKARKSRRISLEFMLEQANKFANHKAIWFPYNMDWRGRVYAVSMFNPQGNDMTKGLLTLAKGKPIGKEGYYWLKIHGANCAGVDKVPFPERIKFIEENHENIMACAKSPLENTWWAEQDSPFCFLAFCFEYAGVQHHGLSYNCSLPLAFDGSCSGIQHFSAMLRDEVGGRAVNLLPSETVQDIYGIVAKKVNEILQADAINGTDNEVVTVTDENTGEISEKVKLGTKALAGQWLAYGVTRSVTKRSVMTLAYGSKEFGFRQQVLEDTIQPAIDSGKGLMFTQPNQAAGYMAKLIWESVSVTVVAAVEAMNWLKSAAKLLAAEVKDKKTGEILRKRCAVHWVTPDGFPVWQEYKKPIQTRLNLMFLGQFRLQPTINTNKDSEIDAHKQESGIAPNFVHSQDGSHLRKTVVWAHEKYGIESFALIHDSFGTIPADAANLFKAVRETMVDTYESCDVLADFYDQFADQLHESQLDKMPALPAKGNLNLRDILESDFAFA

Structure (SMILES)	incorporation efficiency of the substrate y into RNA (transcription efficiency) (T7 RNA polymerase)	transcription efficiency, two y substrates incorporated into RNA (T7 RNA polymerase)	replication with two adjacent unnatural bases in template (35-mer product) [2]	efficiency (Vmax/Km) ([3]; N′ = A)	Vmax ([3]; N′ = A, SD in parentheses)	efficiency (Vmax/Km) ([3]; N′ = C)	Vmax ([3]; N′ = C, SD in parentheses)	efficiency (Vmax/Km) ([3]; N′ = T)	Vmax ([3]; N′ = T, SD in parentheses)	efficiency (Vmax/Km) ([3]; N′ = y)	Vmax ([3]; N′ = y, SD in parentheses)	further results
Nc1nc(-c2nccs2)c2[nH]cnc2n1 [v, 2-amino-6-(2-thiazolyl)purine]	96%	about 30%	allows replication to proceed	3.3 × 10^3 % min^−1M^−1	0.36(0.08) % min^−1	4.1×10^4 % min^−1M^−1	22(5) % min^−1	5.1×10^3 % min^−1M^−1	2.0(0.7) % min^−1	1.4×10^5 % min^−1M^−1	40(21) % min^−1	incorporation selectivity opposite y ([1]; compared with s): comparable to the selectivity of s; incorporation of C opposite the template base [1, 4]: also incorporated although in a small amount; incorporation of y at the site corresponding to the template base [1, 4]: selectively incorporated; replication efficiency in elongation reaction (35-mer band intensity) ([2]; G and y, one unnatural base in template (NN=vT vs NN=sT)): higher replication efficiency than the s-y base pair; incorporation efficiency of y opposite v relative to y opposite s ([3]; ratio of Vmax/Km): about 4 fold; incorporation efficiency of y opposite v relative to C incorporation ([3]; selectivity, ratio of Vmax/Km): about 3 fold; incorporation efficiency of y opposite v relative to T incorporation ([3]; selectivity, ratio of Vmax/Km): ≥ 20 fold
Nc1nc(-c2cccs2)c2[nH]cnc2n1 [s, 2-amino-6-thienylpurine, reference compound]	50-60%	no RNA incorporating two y was obtained	little 35-mer product was obtained; also recorded: little incorporation of y	3.0 × 10^3 % min^−1M^−1	0.26(0.06) % min^−1	2.5 × 10^4 % min^−1M^−1	15(5) % min^−1	9.4 × 10^3 % min^−1M^−1	3.0(0.3) % min^−1	3.6×10^4 % min^−1M^−1	9.4(2.5) % min^−1	Km ([3]; N′ = A, SD in parentheses): 86 µM; Km ([3]; N′ = C, SD in parentheses): 590 µM; Km ([3]; N′ = T, SD in parentheses): 320 µM; Km ([3]; nucleoside triphosphate N′ = y, standard deviation in parentheses): 260 µM
